Test results published in the supplement of paper PMC10307832.

Key:
Experiment in all cases: relative viability (nuclei count vs DMSO), 5 days (fraction); higher = more cells survive
Alpelisib + Navitoclax = compound: Cc1nc(NC(=O)N2CCC[C@H]2C(N)=O)sc1-c1ccnc(C(C)(C)C(F)(F)F)c1 [Alpelisib] + CC1(C)CCC(c2ccc(Cl)cc2)=C(CN2CCN(c3ccc(C(=O)NS(=O)(=O)c4ccc(N[C@H](CCN5CCOCC5)CSc5ccccc5)c(S(=O)(=O)C(F)(F)F)c4)cc3)CC2)C1 [Navitoclax] (partner 0.5 µM)
Summary of the method: (§1)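 Lung cancer cell lines in 1536-well plates were dosed by pin tool the day after seeding, either with one drug alone or with a fixed anchor-drug dose plus five library-drug doses (not always all listed) in √10 steps. After 5 days, cells were fixed and their nuclei stained in one step (final 0.05% Triton X-100, 1% formaldehyde, 1 ug/ml Hoechst), then counted on 4× images. Relative viability is the nuclei count in treated wells divided by that in vehicle wells. Values are medians of duplicate plates.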

Alpelisib + Phenformin = compound: Cc1nc(NC(=O)N2CCC[C@H]2C(N)=O)sc1-c1ccnc(C(C)(C)C(F)(F)F)c1 [Alpelisib] + N=C(N)NC(=N)NCCc1ccccc1 [Phenformin] (partner 250 µM)
Summary of the method: as §1

Vemurafenib + Trametinib = compound: CCCS(=O)(=O)Nc1ccc(F)c(C(=O)c2c[nH]c3ncc(-c4ccc(Cl)cc4)cc23)c1F [Vemurafenib] + CC(=O)Nc1cccc(-n2c(=O)n(C3CC3)c(=O)c3c(Nc4ccc(I)cc4F)n(C)c(=O)c(C)c32)c1 [Trametinib] (partner 0.02 µM)
Summary of the method: as §1

OSI-027 + Lapatinib = compound: COc1cccc2cc(-c3nc([C@H]4CC[C@H](C(=O)O)CC4)n4ncnc(N)c34)[nH]c12 [OSI-027] + CS(=O)(=O)CCNCc1ccc(-c2ccc3ncnc(Nc4ccc(OCc5cccc(F)c5)c(Cl)c4)c3c2)o1 [Lapatinib] (partner 2 µM)
Summary of the method: as §1

NCI-H2170 was tested, and the relative viability (Alpelisib + Navitoclax; first compound 0.04 µM) was 0.54, the relative viability (Alpelisib + Navitoclax; first compound 0.1265 µM) was 0.638 and the relative viability (Alpelisib + Navitoclax; first compound 0.4 µM) was 0.52. It also gave a relative viability (Alpelisib + Navitoclax; first compound 1.265 µM) of 0.316, a relative viability (Alpelisib + Navitoclax; first compound 4 µM) of 0.308 and a relative viability (Alpelisib + Phenformin; first compound 0.04 µM) of 0.466. The relative viability (Alpelisib + Phenformin; first compound 0.1265 µM) was 0.384, the relative viability (Alpelisib + Phenformin; first compound 0.4 µM) was 0.438 and the relative viability (Alpelisib + Phenformin; first compound 1.265 µM) was 0.45. For the same cell line, the relative viability (Alpelisib + Phenformin; first compound 4 µM) was 0.387, the relative viability (Vemurafenib + Trametinib; first compound 0.03162 µM) was 0.888 and the relative viability (Vemurafenib + Trametinib; first compound 0.3162 µM) was 0.846. For the same cell line, the relative viability (Vemurafenib + Trametinib; first compound 1 µM) was 0.89, the relative viability (OSI-027 + Lapatinib; first compound 0.01 µM) was 0.268 and the relative viability (OSI-027 + Lapatinib; first compound 0.03162 µM) was 0.283. For the same cell line, the relative viability (OSI-027 + Lapatinib; first compound 0.1 µM) was 0.257, the relative viability (OSI-027 + Lapatinib; first compound 0.3162 µM) was 0.27 and the relative viability (OSI-027 + Lapatinib; first compound 1 µM) was 0.254.
Cell Line NCI-H2228 has a relative viability (Alpelisib + Navitoclax; first compound 0.04 µM) of 0.977, a relative viability (Alpelisib + Navitoclax; first compound 0.1265 µM) of 1 and a relative viability (Alpelisib + Navitoclax; first compound 0.4 µM) of 0.552. It also gave a relative viability (Alpelisib + Navitoclax; first compound 1.265 µM) of 0.51, a relative viability (Alpelisib + Navitoclax; first compound 4 µM) of 0.294 and a relative viability (Alpelisib + Phenformin; first compound 0.04 µM) of 0.363. The relative viability (Alpelisib + Phenformin; first compound 0.1265 µM) was 0.284, the relative viability (Alpelisib + Phenformin; first compound 0.4 µM) was 0.306 and the relative viability (Alpelisib + Phenformin; first compound 1.265 µM) was 0.171. It also gave a relative viability (Alpelisib + Phenformin; first compound 4 µM) of 0.175, a relative viability (Vemurafenib + Trametinib; first compound 0.03162 µM) of 0.357 and a relative viability (Vemurafenib + Trametinib; first compound 0.1 µM) of 0.524. The relative viability (Vemurafenib + Trametinib; first compound 0.3162 µM) was 0.668, the relative viability (Vemurafenib + Trametinib; first compound 1 µM) was 0.439 and the relative viability (OSI-027 + Lapatinib; first compound 0.01 µM) was 1.05. It also gave a relative viability (OSI-027 + Lapatinib; first compound 0.03162 µM) of 1.21, a relative viability (OSI-027 + Lapatinib; first compound 0.1 µM) of 0.958 and a relative viability (OSI-027 + Lapatinib; first compound 1 µM) of 0.539.
With NCI-H2347 the relative viability (Alpelisib + Navitoclax; first compound 0.04 µM) was 0.919, the relative viability (Alpelisib + Navitoclax; first compound 0.1265 µM) was 0.745 and the relative viability (Alpelisib + Navitoclax; first compound 0.4 µM) was 0.868. It also gave a relative viability (Alpelisib + Navitoclax; first compound 1.265 µM) of 0.665, a relative viability (Alpelisib + Navitoclax; first compound 4 µM) of 0.605 and a relative viability (Alpelisib + Phenformin; first compound 0.04 µM) of 0.445. The relative viability (Alpelisib + Phenformin; first compound 0.1265 µM) was 0.299, the relative viability (Alpelisib + Phenformin; first compound 0.4 µM) was 0.416 and the relative viability (Alpelisib + Phenformin; first compound 1.265 µM) was 0.38. For the same cell line, the relative viability (Alpelisib + Phenformin; first compound 4 µM) was 0.376, the relative viability (Vemurafenib + Trametinib; first compound 0.03162 µM) was 0.266 and the relative viability (Vemurafenib + Trametinib; first compound 0.1 µM) was 0.215. The relative viability (Vemurafenib + Trametinib; first compound 0.3162 µM) was 0.263, the relative viability (Vemurafenib + Trametinib; first compound 1 µM) was 0.251 and the relative viability (OSI-027 + Lapatinib; first compound 0.01 µM) was 0.983. For the same cell line, the relative viability (OSI-027 + Lapatinib; first compound 0.03162 µM) was 0.921, the relative viability (OSI-027 + Lapatinib; first compound 0.1 µM) was 0.885 and the relative viability (OSI-027 + Lapatinib; first compound 0.3162 µM) was 0.806. It also gave a relative viability (OSI-027 + Lapatinib; first compound 1 µM) of 0.516.
With NCI-H2405 the relative viability (Alpelisib + Navitoclax; first compound 0.04 µM) was 1.05, the relative viability (Alpelisib + Navitoclax; first compound 0.1265 µM) was 0.894 and the relative viability (Alpelisib + Navitoclax; first compound 0.4 µM) was 0.798. It also gave a relative viability (Alpelisib + Navitoclax; first compound 1.265 µM) of 0.596, a relative viability (Alpelisib + Navitoclax; first compound 4 µM) of 0.789 and a relative viability (Alpelisib + Phenformin; first compound 0.04 µM) of 0.371. The relative viability (Alpelisib + Phenformin; first compound 0.1265 µM) was 0.345, the relative viability (Alpelisib + Phenformin; first compound 0.4 µM) was 0.368 and the relative viability (Alpelisib + Phenformin; first compound 1.265 µM) was 0.304. For the same cell line, the relative viability (Alpelisib + Phenformin; first compound 4 µM) was 0.272, the relative viability (Vemurafenib + Trametinib; first compound 0.03162 µM) was 0.622 and the relative viability (Vemurafenib + Trametinib; first compound 0.1 µM) was 0.473. It also gave a relative viability (Vemurafenib + Trametinib; first compound 1 µM) of 0.608, a relative viability (OSI-027 + Lapatinib; first compound 0.01 µM) of 1.03 and a relative viability (OSI-027 + Lapatinib; first compound 0.03162 µM) of 0.996. It also gave a relative viability (OSI-027 + Lapatinib; first compound 0.1 µM) of 0.798, a relative viability (OSI-027 + Lapatinib; first compound 0.3162 µM) of 0.852 and a relative viability (OSI-027 + Lapatinib; first compound 1 µM) of 0.539.
NCI-H3122 was tested, and the relative viability (Alpelisib + Navitoclax; first compound 0.04 µM) was 1.03, the relative viability (Alpelisib + Navitoclax; first compound 0.1265 µM) was 0.982 and the relative viability (Alpelisib + Navitoclax; first compound 0.4 µM) was 1.02. The relative viability (Alpelisib + Navitoclax; first compound 1.265 µM) was 0.906, the relative viability (Alpelisib + Navitoclax; first compound 4 µM) was 0.81 and the relative viability (Alpelisib + Phenformin; first compound 0.04 µM) was 0.409. The relative viability (Alpelisib + Phenformin; first compound 0.1265 µM) was 0.403, the relative viability (Alpelisib + Phenformin; first compound 0.4 µM) was 0.41 and the relative viability (Alpelisib + Phenformin; first compound 1.265 µM) was 0.399. The relative viability (Alpelisib + Phenformin; first compound 4 µM) was 0.316, the relative viability (Vemurafenib + Trametinib; first compound 0.03162 µM) was 0.219 and the relative viability (Vemurafenib + Trametinib; first compound 0.1 µM) was 0.271. The relative viability (Vemurafenib + Trametinib; first compound 0.3162 µM) was 0.243, the relative viability (Vemurafenib + Trametinib; first compound 1 µM) was 0.304 and the relative viability (OSI-027 + Lapatinib; first compound 0.01 µM) was 1.09. It also gave a relative viability (OSI-027 + Lapatinib; first compound 0.03162 µM) of 1.1, a relative viability (OSI-027 + Lapatinib; first compound 0.1 µM) of 1.14 and a relative viability (OSI-027 + Lapatinib; first compound 0.3162 µM) of 1.05. The relative viability (OSI-027 + Lapatinib; first compound 1 µM) was 0.808.
Cell Line PC-3 [JPC-3] has a relative viability (Alpelisib + Navitoclax; first compound 0.04 µM) of 0.828, a relative viability (Alpelisib + Navitoclax; first compound 0.1265 µM) of 0.836 and a relative viability (Alpelisib + Navitoclax; first compound 0.4 µM) of 0.848. The relative viability (Alpelisib + Navitoclax; first compound 1.265 µM) was 0.73, the relative viability (Alpelisib + Navitoclax; first compound 4 µM) was 0.762 and the relative viability (Alpelisib + Phenformin; first compound 0.04 µM) was 0.502. It also gave a relative viability (Alpelisib + Phenformin; first compound 0.1265 µM) of 0.496, a relative viability (Alpelisib + Phenformin; first compound 0.4 µM) of 0.503 and a relative viability (Alpelisib + Phenformin; first compound 1.265 µM) of 0.454. The relative viability (Alpelisib + Phenformin; first compound 4 µM) was 0.463, the relative viability (Vemurafenib + Trametinib; first compound 0.3162 µM) was 0.649 and the relative viability (Vemurafenib + Trametinib; first compound 1 µM) was 0.802. It also gave a relative viability (OSI-027 + Lapatinib; first compound 0.01 µM) of 0.452, a relative viability (OSI-027 + Lapatinib; first compound 0.03162 µM) of 0.454 and a relative viability (OSI-027 + Lapatinib; first compound 0.1 µM) of 0.412. For the same cell line, the relative viability (OSI-027 + Lapatinib; first compound 0.3162 µM) was 0.327 and the relative viability (OSI-027 + Lapatinib; first compound 1 µM) was 0.298.
